# Experimental data published in ChEMBL document CHEMBL1133082, “Adenosine kinase inhibitors. 2. Synthesis, enzyme inhibition, and antiseizure activity of diaryltubercidin analogues” (J Med Chem, 2000).
# Assays:
# Rattus norvegicus [1] = assay: Tested for inhibition of MES-induced seizures in rat after ip administration of 5 mg/kg; format: functional; details: route intraperitoneal
# Adenosine kinase = Adenosine kinase (Homo sapiens, UniProt P55263); assay: Inhibition of recombinant human adenosine kinase
# Rattus norvegicus [2] = assay: Intraperitoneal effective dose required for inhibition of MES-induced seizures in rat; format: functional; details: ip
# Adenosine kinase, sequence (P55263 whole entry): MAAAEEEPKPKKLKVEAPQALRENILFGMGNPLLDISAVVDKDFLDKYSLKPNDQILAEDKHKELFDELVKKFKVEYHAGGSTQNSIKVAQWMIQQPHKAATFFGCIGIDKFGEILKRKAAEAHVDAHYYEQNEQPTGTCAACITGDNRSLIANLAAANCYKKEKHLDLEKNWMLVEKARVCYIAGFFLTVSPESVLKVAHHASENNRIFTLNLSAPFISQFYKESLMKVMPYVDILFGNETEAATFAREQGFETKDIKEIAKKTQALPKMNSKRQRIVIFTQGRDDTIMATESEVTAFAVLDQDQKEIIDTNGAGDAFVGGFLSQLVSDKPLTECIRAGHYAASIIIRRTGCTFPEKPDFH
Compound,inhibition in vivo at 5 mg/kg (Rattus norvegicus [1]) [%],IC50 (Adenosine kinase) [µM],ED50 (Rattus norvegicus [2]) [mg/kg]
C[C@H]1O[C@@H](n2cc(-c3ccccc3)c3c(Nc4ccc(F)cc4)ncnc32)[C@H](O)[C@@H]1O,73,,
OC[C@H]1O[C@@H](n2ccc3c(Nc4ccccc4)ncnc32)[C@H](O)[C@@H]1O,,1.25,
C[C@H]1O[C@@H](n2cc(I)c3c(NCc4ccccc4)ncnc32)[C@H](O)[C@@H]1O,,0.8,
C[C@H]1O[C@@H](n2cc(-c3ccccc3)c3c(Nc4ccc(C#N)cc4)ncnc32)[C@H](O)[C@@H]1O,87,0.014,
C[C@H]1O[C@@H](n2cc(-c3ccccc3)c3c(NCc4ccccc4)ncnc32)[C@H](O)[C@@H]1O,,0.03,
COc1ccc(Nc2ncnc3c2c(-c2ccccc2)cn3[C@@H]2O[C@H](C)[C@@H](O)[C@H]2O)cc1,93,0.006,1
C[C@H]1O[C@@H](n2cc(-c3ccccc3)c3c(Nc4ccc(O)cc4)ncnc32)[C@H](O)[C@@H]1O,35,0.001,5.8
OC[C@H]1O[C@@H](n2cc(-c3ccccc3)c3c(Nc4ccccc4)ncnc32)C[C@@H]1O,,0.3,
